{
  "source": "patent US20250345295A1",
  "about": "“LMK235 COMPOSITIONS AND METHODS” (UNM Rainforest Innovations, priority 2024, published 2025)",
  "test_system": "C57BL/6 mice with TIC model",
  "test": "von Frey mechanical threshold, TIC trigeminal nerve injury model",
  "type": "in vivo, mouse",
  "source_text": "Mice underwent the TIC nerve injury surgery, a simplified non-ligation variant of the trigeminal CCI-ION model previously described (Lyons et al., Neuroscience 2015 Jun. 4; 295:126-138; Ma et al., MolBrain 2012 Dec. 28; 5:44). Briefly, mice were anesthetized with isoflurane (3-4%) and a piece of chromic gut suture (2 mm length, 6-0) was placed parallel to the infraorbital nerve (ION) adjacent to the maxillary bone infraorbital fissure at a site just under the lower eyelid. Naïve controls underwent anesthesia only. The chronic trigeminal inflammatory compression (TIC) nerve injury model induces measurable changes in evoked reflexive or higher order pain-like and anxiety-like behaviors but are not otherwise detectable.\nThe HDAC4/5 inhibitor LMK235 (s.c., 5 mg/kg)(N-[[6-(Hydroxyamino)-6-oxohexyl]oxy]-3,5-dimethyl-benzamide) (Cayman Chemical Co., Ann Arbor, MI) was used at previously published dilutions (Bennett G J, Xie Y K. Pain 1988 April; 33:87-107). […] All treatments with the HDACi (5 mg/kg) or vehicle were given daily for seven consecutive days in the neck scruff (s.c.) for comparisons to naïve control mice.\nIn the first post-treatment study, male C57B1/6 mice were subcutaneously (s.c.) injected daily for seven days beginning in week 3 following the trigeminal nerve insult induced surgically. Withdrawal thresholds were tested weekly with von Frey fiber stimulation on the snout. One TIC mouse behaving erratically on day 1-7 was eliminated from the study.\nIn the second post-treatment study, C57B1/6 mice were treated daily for 14 days in week 8 and week 9 after the nerve insult. Withdrawal thresholds were determined weekly with von Frey fiber stimulation on the snout until experiment end.\nTesting was done by an observer blinded to study group. Von Frey assessment of snout withdrawal threshold was conducted prior to and at least once a week after nerve injury to confirm development of craniofacial neuropathic pain. […]\nMechanical and cold sensitivity was modified for face as previously described (Montera M A, Westlund K N, Bio-protocol2020 April 20; 10(8):e3591-e3591; Lyons et al., Neuroscience 2015 Jun. 4; 295:126-138; Ma et al., Mol Brain 2012 Dec. 28; 5:44; Montera et al., Channels (Austin). 2021 December; 15(1):31-37). Briefly, animals were gently restrained and the mechanical threshold for nocifensive head withdrawal was determined using calibrated von Frey filaments (0.008 g-6.0 g) using the Up-Down method (Chaplan et al., J Neurosci Methods 1994 July; 53(1):55-63; FIG. 2). Cold sensitivity was determined by applying a 10° C. cold coil to the ION's receptive field and measuring the time until an animal withdrew its head (Montera et al., Channels (Austin). 2021 December; 15(1):31-37).",
  "note": "“Also recorded” adds a separate entry of the source.",
  "data": [
    {"smiles": "Cc1cc(C)cc(C(=O)NOCCCCCC(=O)NO)c1", "note": "[LMK235, N-[[6-(Hydroxyamino)-6-oxohexyl]oxy]-3,5-dimethyl-benzamide]", "values": [
      {"measurement": "mechanical threshold (von Frey), ipsilateral", "setting": "C57BL/6 TIC mice, 5 mg/kg s.c., post-treatment 8 weeks after nerve injury, vs vehicle, 5 mg/kg", "value": "significantly reversed; also recorded: significantly increased the mechanical threshold"},
      {"measurement": "mechanical threshold (von Frey), contralateral side", "setting": "TIC mice treated in week 8", "value": "complete return to naïve baseline"},
      {"measurement": "whisker pad mechanical threshold (von Frey)", "setting": "male C57BL/6 TIC mice, 5 mg/kg s.c. daily for seven days in week 3, vs vehicle, 5 mg/kg", "value": "reversed to naïve baseline; also recorded: returned whisker pad mechanical threshold to naïve baseline"},
      {"measurement": "time mechanical threshold remained at naïve baseline", "setting": "male C57BL/6 TIC mice, 5 mg/kg s.c. daily in week 3", "value": "4-6 weeks"}
    ]}
  ]
}
